# Laboratory results from patent US20240124464A1, “SUBSTITUTED FUSED BICYCLIC COMPOUND AS KINASE INHIBITOR AND USE THEREOF” (IMPACT THERAPEUTICS (SHANGHAI), INC, priority 2020, published 2024).
# pIC50: −log10 of the molar value.
# Assays:
# NUAK2(h) enzyme = target: T1, NUAK2(h) enzyme (Homo sapiens, UniProt Q9H093); test: In vitro NUAK2 enzymatic assay (Eurofins Discovery, [γ-33P]-ATP filter assay); assay type: biochemical; conditions: 45 μM ATP, 40 min, room temperature; read-out: IC50, inhibitory effect on NUAK2 enzyme activity
# T1 construct: purchased Eurofins Discovery
# T1 sequence (Q9H093 1-628): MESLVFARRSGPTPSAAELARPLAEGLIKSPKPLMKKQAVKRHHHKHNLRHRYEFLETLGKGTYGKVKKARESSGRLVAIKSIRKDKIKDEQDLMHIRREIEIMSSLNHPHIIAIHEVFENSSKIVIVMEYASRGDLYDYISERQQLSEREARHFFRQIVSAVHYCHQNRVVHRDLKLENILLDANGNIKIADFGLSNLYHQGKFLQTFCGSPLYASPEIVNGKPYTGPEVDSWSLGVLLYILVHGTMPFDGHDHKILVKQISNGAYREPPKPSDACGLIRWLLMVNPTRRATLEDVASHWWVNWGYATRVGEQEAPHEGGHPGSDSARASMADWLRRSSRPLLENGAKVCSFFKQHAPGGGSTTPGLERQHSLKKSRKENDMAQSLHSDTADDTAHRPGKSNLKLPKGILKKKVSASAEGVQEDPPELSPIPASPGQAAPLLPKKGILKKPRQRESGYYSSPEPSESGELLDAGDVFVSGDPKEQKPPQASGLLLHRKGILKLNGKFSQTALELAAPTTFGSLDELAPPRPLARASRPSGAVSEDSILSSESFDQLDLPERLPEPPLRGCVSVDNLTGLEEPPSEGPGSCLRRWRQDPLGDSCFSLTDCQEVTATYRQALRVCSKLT
# Procedure: In Vitro Assay to Determine the Inhibitory Effect of Compounds in the Patent on NUAK2 Enzymatic Activity
# The in vitro NUAK2 enzymatic assay was carried out at Eurofins Discovery to evaluate the inhibitory effect of the compounds presented in the invention. The assay protocol is as follow: the compound to be tested was mixed with NUAK2(h) enzyme and 300 […] substrate in 8 mM MOPS (pH 7.0) buffer containing 0.2 mM EDTA. A Mg/ATP mixture containing 10 mM magnesium acetate and 45 μM [γ-33P]-ATP was added to start the reaction. After incubation for 40 min at room temperature, the reaction was terminated by adding 0.5% phosphoric acid. Then 10 μL of the reaction mix was spotted onto a P30 filter paper. The filter paper was washed four times with 0.425% phosphoric acid with 4 min for each wash, and one time with methanol. The filter paper was air-dried and counted in a liquid scintillation counter. The values obtained were plotted against the drug concentration and the IC50 was calculated.
# Table 1 summarizes the inhibitory effect (IC50) of compounds on the NUAK2 enzyme activity in the present invention. ++++ indicates IC50≤10 nM; +++ indicates 10 nM<IC50≤100 nM; ++ indicates 100 nM<IC50≤1 μM; + indicates IC50>1 μM.
# NUAK1(h) enzyme = target: T2, NUAK1(h) enzyme (Homo sapiens, UniProt O60285); test: In vitro NUAK1 enzymatic assay (Eurofins Discovery, [γ-33P]-ATP filter assay); assay type: biochemical; conditions: 45 μM ATP, 40 min, room temperature; read-out: IC50, inhibitory effect on NUAK1 enzyme activity
# T2 construct: purchased Eurofins Discovery
# T2 sequence (O60285 1-661): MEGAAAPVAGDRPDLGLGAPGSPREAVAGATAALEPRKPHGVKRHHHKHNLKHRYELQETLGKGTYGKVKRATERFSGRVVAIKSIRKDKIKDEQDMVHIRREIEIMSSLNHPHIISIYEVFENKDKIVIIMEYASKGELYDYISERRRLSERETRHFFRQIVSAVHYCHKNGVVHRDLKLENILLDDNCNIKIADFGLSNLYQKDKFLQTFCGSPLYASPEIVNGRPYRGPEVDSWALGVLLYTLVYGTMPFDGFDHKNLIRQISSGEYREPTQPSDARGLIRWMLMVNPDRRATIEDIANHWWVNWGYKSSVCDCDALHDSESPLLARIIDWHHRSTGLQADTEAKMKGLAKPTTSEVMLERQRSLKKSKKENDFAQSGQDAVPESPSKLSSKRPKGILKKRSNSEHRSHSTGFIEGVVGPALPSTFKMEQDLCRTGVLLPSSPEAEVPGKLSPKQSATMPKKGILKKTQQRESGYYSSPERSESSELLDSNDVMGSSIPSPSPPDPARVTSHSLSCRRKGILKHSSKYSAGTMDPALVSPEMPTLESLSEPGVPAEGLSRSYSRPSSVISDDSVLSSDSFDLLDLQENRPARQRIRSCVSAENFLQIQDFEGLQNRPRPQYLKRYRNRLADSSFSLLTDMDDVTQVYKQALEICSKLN
# Procedure: In Vitro Assay to Determine the Inhibitory Effect of Compounds in the Patent on NUAK1 Enzymatic Activity
# The in vitro NUAK1 enzymatic assay was carried out at Eurofins Discovery to evaluate the inhibitory effect of the compounds presented in the invention. The assay protocol is as follow: the compound to be tested was mixed with NUAK1(h) enzyme and 300 μM […] substrate in 8 mM MOPS (pH 7.0) buffer containing 0.2 mM EDTA and incubated at room temperature. A Mg/ATP mixture containing 10 mM magnesium acetate and 45 μM [y-33P]-ATP was added to start the reaction. After incubation for 40 min at room temperature, the reaction was terminated by adding 0.5% phosphoric acid. Then, 10 μL of the reaction mix was spotted onto a P30 filter paper followed with four times of wash with 0.425% phosphoric acid solution (4 min each time), and one time wash with methanol. The filter paper was air-dried and counted in a liquid scintillation counter. The values obtained were plotted against the drug concentration and the IC50 was calculated.
# Table 1 summarizes the inhibitory effect (IC50) of compounds tested on the NUAK1 enzyme activity in the present invention. ++++ indicates IC50≤10 nM; […]; ++ indicates 100 nM<IC50≤1 μM; + indicates IC50>1 μM.
# [1] = test system: HEC-1-B human endometrial cancer cells; test: CTG (CellTiter-Glo) proliferation assay on HEC-1-B cells, 7 days; assay type: cell-based; conditions: 168 h, 7 days incubation, read-out: IC50, inhibitory effect on proliferation of Hec-1B cells
# Procedure: CTG Assay to Evaluate the Inhibitory Effect of Compounds on HEC-1-B Human Endometrial Cancer Cells
# Human endometrial cancer HEC-1-B cells were resuscitated and cultured in complete medium (MEM medium+10% FBS). When reaching about 80% confluence, the cells were gently blown away from the bottom of the culture dish with a 1 mL pipette. The cells were collected and centrifuged at 500 rpm for 3 min. The supernatant was discarded and the cell pellet was resuspend in fresh medium. Cells were counted to determine cell density and seeded into 96-well plates at a density of 1000 cells per well and incubated overnight at 37° C. in a 5% CO2 incubator. In the next day, the compounds in storage solution was serially diluted with DMSO at a ratio of 1:3 for a total of 9 concentrations. Two μL of each serially diluted solution was added to 98 μL of cell culture medium ([…]), while DMSO was mixed with culture medium similarly to be served as control. The compound dilutions were shaken and mixed. The cell culture plate with cells was removed from CO2 incubator, the culture medium was aspirated from each well, 135 μL of fresh medium was added to each well followed with 15 μL of the compound dilutions. The plates were incubated at 37° C. for 7 days in a 5% CO2 incubator. One hundred μL CellTiter-Glo reagent was added to each well and the plate was vortexed for 2 min and incubated for 10 min to fully lyse the cells. The chemiluminescence values were read using a plate reader.
# The chemiluminescence values were plotted against compound concentrations to calculate the inhibitory activity of each compound on cell proliferation Cell inhibition rate (%)=(chemiluminescence value tested compound−chemiluminescence value DMSO control)/(chemiluminescence value medium control−chemiluminescence valueDMSO control)×100%.
# A nonlinear S-curve regression was fitted using XLFit software to fit the data to derive a dose-effect curve, from which the IC50 values were calculated. The curve equation was Y=Bottom+(Top-Bottom)/(1+10{acute over ( )}((LogIC50-X)×slope)), where Y is the cellular inhibition rate, X is the compound concentration, Bottom refers to the lowest inhibition rate, and Top refers to the highest inhibition rate.
# Table 3 summarizes the inhibitory effects (IC50) of the compounds on the proliferation of Hec-1B cells, Where ++++ indicates 100 nM<IC50≤500 nM; +++ indicates 500 nM<IC50≤1 μM; ++ indicates 1 μM<IC50≤10 μM; + indicates IC50>10 μM.
Structure (SMILES),pIC50 (NUAK2(h) enzyme),pIC50 (NUAK1(h) enzyme),pIC50 [1]
"COc1cc(N2CCN(C)CC2)ccc1Nc1ncc2ccc(=O)n(C3CC3)c2n1 [Example 23, 8-cyclopropyl-2-((2-methoxy-4-(4-methylpiperazin-1-yl)phenyl)amino)pyrido[2,3-d]pyrimidin-7(8H)-one]",6.00 to 7.00,7.00 to 8.00,6.30 to 7.00
"COc1cc(N2CCN(C)CC2)ccc1Nc1ncc2cnc(=O)n(C3CCCC3)c2n1 [Example 5, 1-cyclopentyl-7-((2-methoxy-4-(4-methylpiperazin-1-yl)phenyl)amino)pyrimido[4,5-d]pyrimidin-2(1H)-one]",≥ 8.00,6.00 to 7.00,6.00 to 6.30
"Cc1cc(N2CCN(C)CC2)ccc1Nc1ncc2cnc(=O)n(C3CCCC3)c2n1 [Example 10, 1-cyclopentyl-7-((2-methyl-4-(4-methylpiperazin-1-yl)phenyl)amino)pyrimido[4,5-d]pyrimidin-2(1H)-one]",7.00 to 8.00,6.00 to 7.00,6.00 to 6.30
"COc1cc(N2CCN(C)CC2)ccc1Nc1ncc2c(n1)N(C1CCCC1)C(=O)NC2 [Example 2, 1-cyclopentyl-7-((2-methoxy-4-(4-methylpiperazin-1-yl)phenyl)amino)-3,4-dihydropyrimido[4,5-d]pyrimidin-2(1H)-one]",7.00 to 8.00,7.00 to 8.00,5.00 to 6.00
"COc1cc(N2CCN(C)CC2)ccc1Nc1nnc2ccc(=O)n(C3CCCC3)c2n1 [Example 24, 5-cyclopentyl-3-((2-methoxy-4-(4-methylpiperazin-1-yl)phenyl)amino)pyrido[2,3-e][1,2,4]triazin-6(5H)-one]",7.00 to 8.00,6.00 to 7.00,6.00 to 6.30
"COc1cc(N2CCN(C)CC2)ccc1Nc1ncc2c(n1)N(C1CCCC1)C(=O)CC2 [Example 28, 8-cyclopentyl-2-((2-methoxy-4-(4-methylpiperazin-1-yl)phenyl)amino)-5,8-dihydropyrido[2,3-d]pyrimidin-7(6H)-one]",7.00 to 8.00,6.00 to 7.00,5.00 to 6.00
"COc1cc(N2CCN(C)CC2)ccc1Nc1ncc2c(n1)N(C1CCCCC1)C(=O)CC2 [Example 29, 8-cyclohexyl-2-((2-methoxy-4-(4-methylpiperazin-1-yl)phenyl)amino)-5,8-dihydropyrido[2,3-d]pyrimidin-7(6H)-one]",7.00 to 8.00,7.00 to 8.00,6.00 to 6.30
"COc1cc(N2CCN(C)CC2)ccc1Nc1ncc2ccc(=O)n(C3CCCC3)c2n1 [Example 19, 8-cyclopentyl-2-((2-methoxy-4-(4-methylpiperazin-1-yl)phenyl)amino)pyrido[2,3-d]pyrimidin-7(8H)-one]",≥ 8.00,7.00 to 8.00,6.00 to 6.30

# The next lines start with the values.
pIC50 (NUAK2(h) enzyme),pIC50 (NUAK1(h) enzyme),pIC50 [1],Structure (SMILES)
6.00 to 7.00,7.00 to 8.00,6.30 to 7.00,COc1cc(N2CCN(C)CC2)ccc1Nc1ncc2cc(C)c(=O)n(C3CC3)c2n1 [Example 21]
7.00 to 8.00,7.00 to 8.00,6.00 to 6.30,"COc1cc(N2CCN(C)CC2)ccc1Nc1ncc2cc(C#N)c(=O)n(C3CCCC3)c2n1 [Example 26, 8-cyclopentyl-2-((2-methoxy-4-(4-methylpiperazin-1-yl)phenyl)amino)-7-oxo-7,8-dihydropyrido[2,3-d]pyrimidine-6-carbonitrile]"
6.00 to 7.00,6.00 to 7.00,5.00 to 6.00,"COc1cc(N2CCN(C)CC2)ccc1Nc1ncc2c(C)cc(=O)n(C3CCCC3)c2n1 [Example 27, 8-cyclopentyl-2-((2-methoxy-4-(4-methylpiperazin-1-yl)phenyl)amino)-5-methylpyrido[2,3-d]pyrimidin-7(8H)-one]"
7.00 to 8.00,7.00 to 8.00,< 5.00,"COc1cc(N2CCN(C)CC2)ccc1Nc1ncc2cc(C)c(=O)n(C3CCCC3)c2n1 [Example 20, 8-cyclopentyl-2-((2-methoxy-4-(4-methylpiperazin-1-yl)phenyl)amino)-6-methylpyrido[2,3-d]pyrimidin-7(8H)-one]"
